Experimental data as given in PubChem BioAssay AID1645864 (Buhrlage Lab, Dana-Farber Cancer Institute and Novartis …, 2021).
Calls of active or inactive are those of the source.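 Rule for the calls: active = maximal inhibition of USP17 at or above 30% in the confirmation dose-response, a value not among the printed readouts; inactive = the rest.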

Molecular target: Ubiquitin carboxyl-terminal hydrolase 17-like protein 5 (Homo sapiens) (UniProt A8MUK1)
Experiment: ubiquitin-specific protease 17 DUB inhibitors, concentration-effect assay, cell-free, verification of initial screening actives (AID 1645864)
Conditions: purified USP17, ubiquitin-rhodamine cleavage fluorescence, 3 h

Chain of Ubiquitin carboxyl-terminal hydrolase 17-like protein 5 (Homo sapiens) (A8MUK1 whole entry, looked up): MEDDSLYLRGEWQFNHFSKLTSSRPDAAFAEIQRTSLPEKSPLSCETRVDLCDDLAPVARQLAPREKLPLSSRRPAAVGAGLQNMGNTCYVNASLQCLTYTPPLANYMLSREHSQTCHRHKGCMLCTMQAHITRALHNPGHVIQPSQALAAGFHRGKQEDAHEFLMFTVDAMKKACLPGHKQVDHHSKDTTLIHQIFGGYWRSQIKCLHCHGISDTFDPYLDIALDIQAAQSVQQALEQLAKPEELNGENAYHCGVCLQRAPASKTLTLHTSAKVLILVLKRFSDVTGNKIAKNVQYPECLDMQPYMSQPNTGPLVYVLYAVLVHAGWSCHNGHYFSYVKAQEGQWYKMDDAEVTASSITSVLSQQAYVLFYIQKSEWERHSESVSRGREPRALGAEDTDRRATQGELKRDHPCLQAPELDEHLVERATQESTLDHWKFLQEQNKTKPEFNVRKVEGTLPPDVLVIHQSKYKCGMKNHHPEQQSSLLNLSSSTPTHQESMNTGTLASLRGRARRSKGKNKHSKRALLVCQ

IC50 | Compound
4.09 µM | COc1ccccc1NS(=O)(=O)c1cccc(NC(=O)CCc2nc3ccccc3s2)c1
23.5 µM | O=C(COc1cc([N+](=O)[O-])cc2cccnc12)NCCC1=CCCCC1
34.4 µM | Cc1c(C(=O)Nc2cccc(C(F)(F)F)c2)cnn1-c1ccccn1
20.2 µM | CCc1ccc(NC(=O)Cc2nnc3cc(-c4nc(C)no4)ccn23)cc1
43.9 µM | O=c1ncn(Cc2ccc3c(c2)OCO3)cc1-c1ncc(C(F)(F)F)cc1Cl
9.57 µM | CSc1cccc(C(=O)Nc2ccc(-c3nc4ccccc4[nH]3)cc2)c1
44.7 µM | Cc1ccn(-c2ccc(NC(=O)c3ccccc3Sc3ccccc3C#N)cc2)n1
46.8 µM | O=C(Cn1c(=O)n(Cc2ccc3c(c2)OCO3)c(=O)c2ncccc21)c1ccccc1
25.3 µM | COc1ccc(N(CC(=O)Nc2cccc(F)c2)S(=O)(=O)c2ccc(OC)c(OC)c2)cc1
> 50 µM (inactive) | COc1ccc(C(=O)N2CCCC3(C2)Nc2cccnc2NC3=NC2CCCC2)cn1 (stereo not drawn)
> 50 µM (inactive) | Cc1ccc(Cl)cc1NC(=O)COC(=O)c1ccc2ccccc2n1
3.91 µM | c1ccc(-c2nc(-c3nnn(-c4ccccc4)c3-c3ccncc3)no2)cc1
> 50 µM (inactive) | CCn1c(SCc2cccc(C)c2)nnc1-c1cnccn1
4.92 µM | O=C(COC(=O)c1cc(Cl)c2c(c1)OCO2)Nc1ccc2[nH]c(=O)[nH]c2c1
28.7 µM | Fc1cccc(Cn2cc(-c3noc(-c4ccncc4)n3)nn2)c1
18.7 µM | COC1/C=C/OC2(C)Oc3c(C)c(O)c4c(c3C2=O)C(=O)C=C(NC(=O)/C(C)=C\C=C\C(C)C(O)C(C)C(O)C(C)C(OC(C)=O)C1C)C4=O (stereo not drawn)
> 50 µM (inactive) | Cc1nn(-c2ccccc2)c(C)c1C(=O)OCC(=O)Nc1cccc(C#N)c1
34.3 µM | CC1=C(C(=O)Nc2ccccc2C)C(c2ccc(OCc3ccccc3F)cc2)n2ncnc2N1 (stereo not drawn)
> 5 µM (inactive) | CCCCn1c(=O)c(CCC(=O)OCC(=O)Nc2ccc3c(c2)OCCO3)nc2ccccc21
0.194 µM | CC(C)CC[C@H]1O[C@@H](CC(=O)O)Cc2cc3c(c(O)c21)C(=O)c1sc(=O)n(C)c1C3=O
26 µM | O=C(CSc1ncnc2c1oc1ccccc12)NC1CCCC1
1.61 µM | COc1ccc(-c2cc(-c3ccccc3)nc(SCC(N)=O)c2C#N)cc1OC
21.1 µM | O=C(CSc1nnc(Cn2cnc3ccccc32)o1)Nc1ccc([N+](=O)[O-])cc1
31.1 µM | CC1CCCN(S(=O)(=O)c2cc3cc(F)ccc3oc2=O)C1 (stereo not drawn)
> 50 µM (inactive) | CCN(CC(=O)Nc1cc(C)on1)c1cccc2ccccc12

IC50 | Compound
> 50 µM (inactive) | COc1cccc(CNC(=O)c2ccc3c(c2)NC(=O)C2CCCN32)c1OC (stereo not drawn)
1.33 µM | Cc1ccc(-c2nc(NC(=O)COc3ccc(Cl)cc3)no2)cc1
> 50 µM (inactive) | COc1ccccc1NC(=O)CSC1=NC2(CCCCC2)Nc2ccccc21
3.57 µM | COCCn1c(=O)[nH]c2cc(C(=O)NCCNc3ccc([N+](=O)[O-])cc3C#N)ccc2c1=O
> 50 µM (inactive) | CN1CCN(C(=O)c2cc(-c3ccn(CC4CC4)n3)n3ccccc23)CC1
26.2 µM | COc1ccc(NC(=O)C2C3C=CC4(O3)C2C(=O)N(CCc2ccccc2)C4C(=O)NC2CCCCC2)cc1 (stereo not drawn)
12 µM | O=C(CSc1nnc2n1CCCCC2)Nc1ccc2[nH]c(=O)[nH]c2c1
11.2 µM | O=C(NC1(O)C(=O)c2ccccc2C1=O)c1cccc2c1-c1ccccc1C2=O
> 50 µM (inactive) | CC1CCN(c2cc(-n3cnc(C(=O)N4CCCCC4)c3)ncn2)CC1
> 50 µM (inactive) | CC(C)(C)c1ccc(C(=O)Nc2ccc(Cn3cncn3)cc2)cc1
10.1 µM | CCOc1cc(N2CCOCC2)c(OCC)cc1NC(=O)c1cc(-c2ccncc2)nc2ccccc12
17.9 µM | CCOc1ccc(NS(=O)(=O)c2ccc(NC(=O)Nc3ccccc3)cc2)cc1
> 50 µM (inactive) | Cc1sc(NC(=O)CN2CCc3ccccc3C2)nc1-c1ccc2c(c1)CCN2C(=O)C1CCCCC1
> 50 µM (inactive) | CCOc1ccc(S(=O)(=O)Nc2ccc[nH]c2=O)cc1
> 50 µM (inactive) | COc1ncccc1CN1CCn2c(Cn3cccn3)cnc2C1C (stereo not drawn)
> 50 µM (inactive) | O=C(OCc1ccc(F)cc1)c1ccc2ccccc2n1
> 50 µM (inactive) | N#Cc1ccc(COC(=O)c2ccc3ccccc3n2)cc1
> 50 µM (inactive) | O=C(CSc1ncnc2c1sc1cccc(F)c12)N1CCCCCC1
> 50 µM (inactive) | CCc1nc(-c2cccc(NC(=O)c3ccc(C#N)cc3F)c2)no1
24.1 µM | Cc1ccc(C(=O)NCc2ccc(C(=O)Nc3ccc(C)c(C)c3)o2)cc1
> 50 µM (inactive) | COc1ccccc1-c1nc(-c2nnn(Cc3ccc(C)cc3)c2C)no1
3.92 µM | C=Cc1ccc(Cn2cccc(S(=O)(=O)N3CCCC3)c2=O)cc1
23.5 µM | Cc1nn(Cc2ccccc2)c2sc(C(=O)Nc3nc4ccccc4[nH]3)cc12
33.1 µM | Cn1c(=O)[nH]c(=O)c2c1nc1n(CCc3ccccc3)c(-c3ccccc3)cn21
> 50 µM (inactive) | Cc1nn(-c2nc3ccccc3[nH]2)c2c1C(c1cccs1)CC(=O)N2 (stereo not drawn)

IC50 | Compound
36.6 µM | N#Cc1ccccc1Cn1c(=O)n(Cc2ccco2)c(=O)c2ccccc21
44.9 µM | COc1ccc(S(=O)(=O)Nc2ccc(Nc3ccc(-n4cccn4)nn3)cc2)cc1
39.9 µM | O=C(Nc1cccc(F)c1)C1CCCN(S(=O)(=O)N2CCCCCC2)C1 (stereo not drawn)
> 50 µM (inactive) | CN=C(N)NCCC/C=C/CCCC(C)CC(C)C1OC(=O)/C=C/C(C)C(O)CC(O)C(C)C(O)CCC(C)C(O)CC2(O)OC(CC(OC(=O)CC(=O)O)CC(O)CC(O)C(C)C(O)/C=C/C1C)CC(O)C2O (stereo not drawn)
> 50 µM (inactive) | Cc1nc2cc(NC(=O)C3CN(C(=O)c4cnccn4)C3)ccc2s1
5.95 µM | CC(C)CC(=O)Nc1cc(F)c2nc(N3CCOCC3)ccc2c1
27.9 µM | CC(=O)Nc1ccc(S(=O)(=O)NCc2ccc(C(=O)NCc3ccc(C)cc3)cc2)cc1
24.9 µM | COC(=O)c1ccc(NC(=O)CSc2nnc(-c3ccc(O)cc3)n2Cc2ccco2)cc1
28.1 µM | Cc1ccc(C2c3c(-c4ccccc4O)n[nH]c3C(=O)N2Cc2ccco2)cc1 (stereo not drawn)
10.9 µM | Cc1ccc(C(=O)c2cn(CC(=O)Nc3ccccc3)c3ccc(C)cc3c2=O)cc1
3.3 µM | CCOc1ccc(-c2nc(C#N)c(N3CCN(C(=O)c4ccccc4C)CC3)o2)cc1
> 50 µM (inactive) | Cc1nnc(-c2nnc(NCc3ccc(Cl)cc3)c3ccccc23)o1
> 50 µM (inactive) | NC(=O)c1ccc(NC(=O)Cc2cc(-c3ccc(Cl)cc3)on2)cc1
> 50 µM (inactive) | COc1ccc(Cl)cc1N1C(=O)[C@H]2[C@@H](C1=O)[C@]1(C(=O)Nc3c(C)cc(C)cc31)N1CCC[C@@H]21
0.161 µM | COC(=O)CC1CC23OC2(C(=O)c2c(O)cccc2C3=O)C(C)O1 (stereo not drawn)
34.7 µM | Cc1[nH]nc(NC(=O)C2COc3ccccc3O2)c1-c1ccccc1 (stereo not drawn)
> 50 µM (inactive) | c1coc(CNc2nc(Nc3cccc4ccccc34)nc3ccccc23)c1
28.2 µM | COc1cccc(N2CCN(c3ccc4nnc(CCC(=O)N5CCc6ccccc6C5)n4n3)CC2)c1
> 50 µM (inactive) | O=c1[nH]c(-c2ccccn2)nc2c1CCN(Cc1cnn(-c3ccccc3)c1)C2
> 50 µM (inactive) | N#Cc1ccccc1COC(=O)c1ccc2ccccc2n1
43.6 µM | O=S(=O)(Nc1ccc(O)cc1)c1ccc2oc3ccc(S(=O)(=O)Nc4ccc(O)cc4)cc3c2c1
2.03 µM | Cc1ccc2c(c1)N(C)C(=O)c1cc(NC(=O)c3ccc(F)cc3)ccc1O2
3.75 µM | COc1cc(Cn2cnc3c([nH]c4ccc(Br)cc43)c2=O)cc(OC)c1
13.1 µM | O=C(CSc1ccc2nnc(-c3ccccc3)n2n1)N1CCCc2ccccc21
2.88 µM | Cc1c(-c2ccc(C#N)cc2)oc2ccc(Br)cc2c1=O

IC50 | Compound
9.01 µM | Cc1cc(N2CCC(NC(=O)NCc3ccc(F)cc3)C2=O)ccc1F (stereo not drawn)
> 50 µM (inactive) | Cc1ccc(Cn2nnc(-c3noc(-c4ccc[nH]4)n3)c2C)cc1
0.31 µM | C[C@@H]1OC2=C(C(=O)c3cccc(O)c3C2=O)[C@H](O)[C@@H]1O
> 50 µM (inactive) | COc1ccc(NC(=O)c2nnn(-c3ccccc3C)c2C)cc1OC
42.2 µM | O=C(Nc1cc(F)c2nc(N3CCOCC3)ccc2c1)c1ccc(Br)o1
> 50 µM (inactive) | COc1ccc(CCNC(=O)c2cc(C3CC3)nc3c2cnn3C(C)C)cc1
48.1 µM | Cc1nc(-c2ccc(C(=O)NCc3ccc(F)cc3)cc2)cs1
28.3 µM | CNc1nc2c(c(=O)n1Cc1ccccc1)CN(C(=O)c1ccc(CN)cc1)CC2
0.262 µM | COc1ccc(OC)c(NC(=O)Cn2c(=O)n(CC3CCC(C(=O)NCCc4ccccc4)CC3)c(=O)c3ccccc32)c1 (stereo not drawn)
33.8 µM | N#Cc1c(-c2ccccc2)ccn(Cc2cccc(C(F)(F)F)c2)c1=O
> 50 µM (inactive) | CCn1c(=N)n(CCOc2ccc(F)cc2)c2ccccc21
3.29 µM | O=C(NCc1ccc(-c2nc3cnccc3o2)cc1)c1cc2ccccc2o1
24 µM | COc1ccc(NC(=O)Cn2cc(C(=O)c3ccc(F)cc3)c(=O)c3cc(C)ccc32)cc1
> 5 µM (inactive) | COc1cc(NC(=O)Cn2c(=O)n(-c3ccc(CC(=O)NC4CCCC4)cc3)c(=O)c3ccccc32)cc(OC)c1
25.9 µM | O=C(COC(=O)c1n[nH]c2ccccc12)Nc1ccc(N2CCCCC2)cc1
0.247 µM | O=[N+]([O-])c1ccc(N2CCN(c3ncnc4c3[nH]c3ccc(F)cc34)CC2)cc1
29.5 µM | Cc1nnc(NC(=O)C2CCN(c3ccc(S(N)(=O)=O)cc3[N+](=O)[O-])CC2)o1
> 50 µM (inactive) | O=C(Cc1ccc(Cl)c(Cl)c1)OCC(=O)c1c[nH]c2ccccc12
> 50 µM (inactive) | Cc1ccc2cc3c(nc2n1)CCN(Cc1ccc(F)cc1)C3
> 50 µM (inactive) | Cc1cccc(NC(=O)c2ccn(COc3ccc(F)cc3F)n2)c1C
> 50 µM (inactive) | CCOc1ccc(NC(=O)CSc2nc3n[nH]c(C)c3c(=N)n2-c2ccc(OC)cc2)cc1
2.21 µM | Cc1cccc(-n2ccnc(SCC(=O)Nc3ccc(Cl)cc3F)c2=O)c1

Compound | IC50
CC1Oc2cc3c(-c4c(O)cc(O)c5c(O)c6c(cc45)OC(C)C(C)C6=O)c(O)cc(O)c3c(O)c2C(=O)C1C (stereo not drawn) | 1.25 µM
